In US20160324770A1, “INTRATHECAL ADMINISTRATION, PREFERABLY INTRAVENTRICULAR, OF MTOR INHIBITORS FOR THE THERAPY OF SOME NEURODEGENERATIVE, NEUROINFLAMMATORY AND NEURO-ONCOLOGIC DISEASES” (priority 2012, published 2016):
Like-named read-outs stand apart in the source and are kept apart here.

Legend:
[1] = Blood and brain concentrations and metabolites (LC-MS) after intraventricular (intracerebral) administration by osmotic pump; type: in vivo; conditions: mice that had received intrathecal treatment
[2] = cited from earlier work
[3] = system: AD triple transgenic mouse (3xTg-AD); assay: Alzheimer's disease mouse model, intraventricular osmotic pumps; type: in vivo, 3xTg-AD mouse; conditions: local application, same dosage as in EAE mice
Text: (§1) We carried out trials in mouse models exemplifying 3 families of neurological diseases: • EAE (Experimental Autoimmune Encephalomyelite, model of neuroinflammatory disease): SJL/j mice were immunized with two subcutaneous injections, performed 7 days apart, of proteolipid protein (PLP139-151), Freund's adjuvant and inactivated Mycobacterium tuberculosis. The disease severity was rated with a clinical score: 0=healthy; 1=tail weakness; 2=rear limb ataxia and/or paresis; 3=rear limb paralysis and/or front limb paresis; 4=tetraplegia; 5=state of agony or death • AD (Alzheimer's Disease, model of neurodegenerative disease): AD triple transgenic mouse (3xTg-AD) supplied by Jackson Laboratories (http://jaxmice.jax.org/strain/004807.html) Their memory was evaluated using the Passive Avoidance and Radial Maze tests; • TSC (Tuberous sclerosis complex, model of neuro-oncologic disease): TSC1 mouse with TSC1 gene within a flox cassette, supplied by Jackson Laboratories (http://jaxmice.jax.org/strain/005680.html)
We applied intraventricular catheters and everolimus-secreting osmotic pumps implanted subcutaneously on the back of 12 AD mice for 4 weeks. We infused a vehicle to an equal number of mice. We injected everolimus into 10 healthy mice and, finally, the vehicle into another 10. The appropriate pump was replaced after 4 weeks and kept in place for another 4. […]

[4] = system: EAE (Experimental Autoimmune Encephalomyelite) mice; assay: EAE mouse model, intraventricular pump from clinical score 1; type: in vivo, SJL/j mice
Text: as §1
30 SJL/j mice were immunized and started developing the disease after 11 days. As they developed the neurological deficit and reached a score of 1, they were operated on and an Alzet 1004 pump containing everolimus or a vehicle was positioned. The purpose of this was to represent the usual clinical situation in which the patient goes to the doctor's on the occasion of the first attack. Generally speaking, a diagnosis is made and a high-dose steroid therapy is applied, with good regression of the symptoms, but in the majority of cases other attacks will occur and they will be followed by an increasingly less satisfactory regression, with a gradual increase in residual disability.
In our experimental set, the weight and clinical score of affected mice were monitored daily.

[5] = Blood and brain concentrations and metabolites (LC-MS) after intraventricular (intracerebral) administration by osmotic pump; type: in vivo, mice
Text: Intraventricular infusion: Under general anaesthesia obtained with Ketamine/Xylazine, Alzet osmotic pumps (http://www.alzet.com/products/guide_to_use/pump_selection.ht ml) were implanted subcutaneously on the back; a catheter leading from the pump reached the cranial vault, where it was connected to a connector (Brain Kit 3, Alzet) stereotaxically implanted in the cranium until reaching the lateral ventricle. These pumps are capable of infusing their content at a constant speed for 1-4 weeks.
A quantitative analysis of everolimus in blood and tissue samples was performed with the isotopic dilution method using the LC-MS technique. The chromatographic system was the following: Agilent 1290 Infinity HPLC equipped with a binary pump and HiP Auto Sampler model G4226A. The injection volume was 2 μL, the analytical column used was a Phenomenex Kinetics PFP UHPLC column (Phenomenex, Milan, Italy) […], 1.7 μm, 100 Å, temperature controlled at 55° C. A gradient elution was performed using as solvent A: water with 5 mM ammonium formiate, solvent B: methanol with 0.1% formic acid. The elution profile was the following: solvent A 30%/solvent B 70% for 3 minutes, solvent A 1%/solvent B 99% from 3 to 6 minutes, at a flow velocity of 0.25 mL/min. This setup enabled an elution time of 2.5 minutes. Every injection was preceded by a cycle of washing the injector system with methanol.
Mass spectrometry was conducted using a Q-TOF MS detector model G6540A (Agilent, Germany) equipped with a Dual AJS ESI (electrospray ionization interface) system. The instrument parameters were the following: sheath gas flow: […], sheath gas temperature: 300° C., gas flow: 6 L/min, gas temperature: 300° C., nebulizer pressure: 35 psi, ion spray voltage: 5500 V.
Both everolimus and the isotopic internal standard were detected as ammonium adducts in the positive ion mode.
Everolimus was extracted from whole blood in 1 mL of a methanol solution containing 10% ammonium acetate in order to enable precipitation of most of the serum protein.
The blood samples were freeze-dried and subsequently extracted. The extraction process was carried out in a sonication bath for approx. 10 minutes to ensure complete haemolysis and release of the drug from the cell material.
The process of extraction from brain samples, divided into right and left hemispheres, was similar to the one for whole blood. The tissue samples were weighed and subsequently freeze-dried. After freeze-drying the samples were finely chopped to facilitate subsequent extraction. 1 mL of the methanol solution was then added to 1% v/v of ammonium formiate with 200 ng/mL of internal standard. The samples were then subjected to 10 minutes of sonication and vortexed to ensure complete extraction of the drug. Then followed centrifugation (10 minutes, 4000 rpm, 10° C.) and the supernatant was separated from the pellet. As previously described, the solutions were purified by means of HybridSPE®-Phospholipid solid-phase extraction cartridges with a total volume of 1 ml (Sigma Aldrich, Milan) to eliminate the excess lipid material. The samples were then immediately submitted to LC-MS analysis.
We then decided to look for the maximum tolerable dose by intraventricular administration of everolimus at concentrations 10 times higher than those shown in Table 1: A=25 mg/Kg, B=12.5 mg/Kg, C=[…].
Though they could not be quantified, the presence of metabolites deriving from the transformation of the drug has been noted in the table.

[6] = system: Subependymal Giant Cell Astrocytomas (SEGAs); conditions: systemic administration, cited from earlier work
[7] = dose A=25 mg/Kg intraventricular, treated 3 days
[8] = dose B=12.5 mg/Kg intraventricular, treated 14 days
[9] = dose C=6.125 mg/Kg intraventricular, treated 14 days

Q: For CO[C@H]1C[C@@H]2CC[C@@H](C)[C@@](O)(O2)C(=O)C(=O)N2CCCC[C@H]2C(=O)O[C@H]([C@H](C)C[C@@H]2CC[C@@H](OCCO)[C@H](OC)C2)CC(=O)[C@H](C)/C=C(\C)[C@@H](O)[C@@H](OC)C(=O)[C@H](C)C[C@H](C)/C=C/C=C/C=C/1C [everolimus], which “Blood concentration (detectable only in traces)” value [1] is on record?
A: < 1 mg/kg

Q: And the half-life [2]?
A: 28 to 32 h

Q: What about the “Pharmacological activity observed in AD mice” value [3] of the same molecule?
A: an increase in autophagy

Q: And the “Immunosuppressive effect of intrathecal administration” value ([4]; EAE mice)?
A: powerful local immunosuppressive effect

Q: What about the “Severity of the following 2 attacks” value ([4]; intraventricular pump implanted at score 1, vs controls) of the same molecule?
A: not much milder than in the controls

Q: What about the “Severity of the first attack” value ([4]; intraventricular pump implanted at score 1, vs vehicle) of the same molecule?
A: reduction in the severity of the first attack

Q: What about the “Attacks after the third attack” value ([4]; intraventricular pump, controls continued to have recurring attacks) of the same molecule?
A: no longer manifested attacks

Q: And the “Clinical score after the third attack” value ([4]; score scale 0=healthy to 5=agony or death)?
A: 0

Q: And the “Body weight after the third attack” value ([4]; treated EAE mice, FIG. 3)?
A: fully recovered

Q: What about the Metabolites ([5]; dose A, brain field T8 dx) of the same molecule?
A: No metabolites

Q: What about the Metabolites ([5]; dose A, brain field T9 sx) of the same molecule?
A: No metabolites

Q: What about the “Brain Conc” value [5, 7] of the same molecule?
A: 20.4 ng/g

Q: And the “Conc/250 mg brain, Left hemisphere” value [5, 7]?
A: 4.9 ± 2.3 /250 mg brain

Q: And the “Conc/250 mg brain, Right hemisphere” value [5, 7]?
A: 5.3 ± 2.8 /250 mg brain

Q: And the Metabolites ([5]; dose B, brain field T5- dx)?
A: No metabolites

Q: What about the Metabolites ([5]; dose B, brain field T6 sx) of the same molecule?
A: No metabolites

Q: What about the “Brain Conc” value [5, 8] of the same molecule?
A: 12 to 16 ng/g

Q: What about the “Conc/250 mg brain, Left hemisphere” value [5, 8] of the same molecule?
A: 2.91 ± 0.8 /250 mg brain

Q: And the “Conc/250 mg brain, Right hemisphere” value [5, 8]?
A: 3.1 ± 1.6 /250 mg brain

Q: And the Metabolites ([5]; dose C, brain field T1- dx)?
A: No metabolites

Q: What about the Metabolites ([5]; dose C, brain field T1- sx) of the same molecule?
A: No metabolites

Q: What about the Metabolites ([5]; dose C, brain field T2- dx) of the same molecule?
A: No metabolites

Q: And the Metabolites ([5]; dose C, brain field T2- sx)?
A: No metabolites

Q: What about the “Brain Conc” value [5, 9] of the same molecule?
A: 11.8 ng/g

Q: And the “Conc/250 mg brain, Left hemisphere” value [5, 9]?
A: 2.5 ± 0.2 /250 mg brain

Q: And the “Conc/250 mg brain, Right hemisphere” value [5, 9]?
A: 3.4 ± 0.7 /250 mg brain

Q: And the concentration at 3 days ([5]; mouse, whole blood, other: intraventricular infusion by osmotic pump, dose A=25 mg/Kg intraventricular, treated 3 days, read-out: Conc, Blood)?
A: < 1000 ng/g

Q: And the concentration at 14 days ([5]; mouse, whole blood, other: intraventricular infusion by osmotic pump, dose B=12.5 mg/Kg intraventricular, treated 14 days, read-out: Conc, Blood)?
A: < 1000 ng/g

Q: What about the concentration at 14 days ([5]; mouse, whole blood, other: intraventricular infusion by osmotic pump, dose C=6.125 mg/Kg intraventricular, treated 14 days, read-out: Conc, Blood) of the same molecule?
A: < 1000 ng/g

Q: And the “Study endpoint (volumetric reduction in SEGAs)” value ([6]; 28 patients affected by TS)?
A: reached the endpoint

Q: What about the “Severity grade of adverse reactions” value ([6]; many adverse reactions, most of infectious origin) of the same molecule?
A: 1-3
